Legend:
[1] = target: T1, BRM (Homo sapiens, UniProt P51531); experiment: ATPase catalytic activity assay of BRM (ADP-Glo); type: biochemical; settings: 30 nM BRM, 400 μM ATP, 20 nM salmon sperm DNA, 1 hour at room temperature
T1 construct: made in house; host or cells: High Five insect cells
Description: (§1) Example 38. Assay for ATPase Catalytic Activity of BRM and BRG-1
(§2) The ADP-Glo™ kinase assay is performed in two steps once the reaction is complete.

[2] = target: T2, BRG-1 (Homo sapiens, UniProt P51532); experiment: ATPase catalytic activity assay of BRG-1 (ADP-Glo); type: biochemical; settings: 30 nM BRG-1, 400 μM ATP, 20 nM salmon sperm DNA, 1 hour at room temperature; read-out: BRG1 ATPase: IC50
T2 construct: made in house; host or cells: High Five insect cells
Description: as §1, §2

T2 sequence (P51532 whole entry): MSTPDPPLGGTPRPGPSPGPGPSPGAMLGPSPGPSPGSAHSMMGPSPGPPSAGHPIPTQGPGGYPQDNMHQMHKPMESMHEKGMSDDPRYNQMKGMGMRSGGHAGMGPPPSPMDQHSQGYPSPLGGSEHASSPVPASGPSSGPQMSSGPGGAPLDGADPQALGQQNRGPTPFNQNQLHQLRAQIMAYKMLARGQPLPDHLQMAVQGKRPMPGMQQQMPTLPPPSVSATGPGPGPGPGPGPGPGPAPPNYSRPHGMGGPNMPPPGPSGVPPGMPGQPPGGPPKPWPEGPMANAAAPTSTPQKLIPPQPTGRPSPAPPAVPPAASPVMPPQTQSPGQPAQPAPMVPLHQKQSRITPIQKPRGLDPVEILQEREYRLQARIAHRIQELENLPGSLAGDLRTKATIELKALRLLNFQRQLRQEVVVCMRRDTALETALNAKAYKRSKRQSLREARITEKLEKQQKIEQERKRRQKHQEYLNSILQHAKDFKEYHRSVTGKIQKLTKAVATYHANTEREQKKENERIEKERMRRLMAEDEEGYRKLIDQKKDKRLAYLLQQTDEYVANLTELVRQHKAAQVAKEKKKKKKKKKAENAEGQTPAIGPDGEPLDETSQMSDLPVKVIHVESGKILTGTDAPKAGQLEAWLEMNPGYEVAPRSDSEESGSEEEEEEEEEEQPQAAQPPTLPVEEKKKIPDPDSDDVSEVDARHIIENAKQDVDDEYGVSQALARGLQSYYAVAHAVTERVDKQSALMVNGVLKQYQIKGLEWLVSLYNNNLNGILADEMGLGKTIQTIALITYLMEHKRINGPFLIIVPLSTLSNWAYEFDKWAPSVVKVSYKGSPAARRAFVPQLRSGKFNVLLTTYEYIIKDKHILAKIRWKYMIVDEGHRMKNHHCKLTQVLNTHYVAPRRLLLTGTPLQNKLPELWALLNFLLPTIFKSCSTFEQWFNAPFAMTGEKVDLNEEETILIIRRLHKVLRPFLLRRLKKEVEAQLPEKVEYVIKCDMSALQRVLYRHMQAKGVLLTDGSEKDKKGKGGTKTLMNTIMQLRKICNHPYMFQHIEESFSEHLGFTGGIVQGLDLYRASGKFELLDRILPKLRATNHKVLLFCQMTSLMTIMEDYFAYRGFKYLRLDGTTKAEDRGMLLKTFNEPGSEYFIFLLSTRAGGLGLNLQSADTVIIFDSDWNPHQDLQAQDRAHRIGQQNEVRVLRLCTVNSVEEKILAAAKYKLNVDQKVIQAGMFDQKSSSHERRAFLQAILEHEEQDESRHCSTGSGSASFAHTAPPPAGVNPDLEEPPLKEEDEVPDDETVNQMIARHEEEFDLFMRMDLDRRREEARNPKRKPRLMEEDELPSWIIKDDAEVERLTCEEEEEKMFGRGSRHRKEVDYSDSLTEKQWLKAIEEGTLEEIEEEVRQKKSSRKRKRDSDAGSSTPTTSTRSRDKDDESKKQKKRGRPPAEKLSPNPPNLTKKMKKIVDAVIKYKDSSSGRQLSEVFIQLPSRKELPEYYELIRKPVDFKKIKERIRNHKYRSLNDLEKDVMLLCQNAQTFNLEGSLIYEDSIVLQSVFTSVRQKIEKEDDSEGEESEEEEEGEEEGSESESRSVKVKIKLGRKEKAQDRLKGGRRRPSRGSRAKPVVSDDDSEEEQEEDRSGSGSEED
T1 sequence (P51531 whole entry): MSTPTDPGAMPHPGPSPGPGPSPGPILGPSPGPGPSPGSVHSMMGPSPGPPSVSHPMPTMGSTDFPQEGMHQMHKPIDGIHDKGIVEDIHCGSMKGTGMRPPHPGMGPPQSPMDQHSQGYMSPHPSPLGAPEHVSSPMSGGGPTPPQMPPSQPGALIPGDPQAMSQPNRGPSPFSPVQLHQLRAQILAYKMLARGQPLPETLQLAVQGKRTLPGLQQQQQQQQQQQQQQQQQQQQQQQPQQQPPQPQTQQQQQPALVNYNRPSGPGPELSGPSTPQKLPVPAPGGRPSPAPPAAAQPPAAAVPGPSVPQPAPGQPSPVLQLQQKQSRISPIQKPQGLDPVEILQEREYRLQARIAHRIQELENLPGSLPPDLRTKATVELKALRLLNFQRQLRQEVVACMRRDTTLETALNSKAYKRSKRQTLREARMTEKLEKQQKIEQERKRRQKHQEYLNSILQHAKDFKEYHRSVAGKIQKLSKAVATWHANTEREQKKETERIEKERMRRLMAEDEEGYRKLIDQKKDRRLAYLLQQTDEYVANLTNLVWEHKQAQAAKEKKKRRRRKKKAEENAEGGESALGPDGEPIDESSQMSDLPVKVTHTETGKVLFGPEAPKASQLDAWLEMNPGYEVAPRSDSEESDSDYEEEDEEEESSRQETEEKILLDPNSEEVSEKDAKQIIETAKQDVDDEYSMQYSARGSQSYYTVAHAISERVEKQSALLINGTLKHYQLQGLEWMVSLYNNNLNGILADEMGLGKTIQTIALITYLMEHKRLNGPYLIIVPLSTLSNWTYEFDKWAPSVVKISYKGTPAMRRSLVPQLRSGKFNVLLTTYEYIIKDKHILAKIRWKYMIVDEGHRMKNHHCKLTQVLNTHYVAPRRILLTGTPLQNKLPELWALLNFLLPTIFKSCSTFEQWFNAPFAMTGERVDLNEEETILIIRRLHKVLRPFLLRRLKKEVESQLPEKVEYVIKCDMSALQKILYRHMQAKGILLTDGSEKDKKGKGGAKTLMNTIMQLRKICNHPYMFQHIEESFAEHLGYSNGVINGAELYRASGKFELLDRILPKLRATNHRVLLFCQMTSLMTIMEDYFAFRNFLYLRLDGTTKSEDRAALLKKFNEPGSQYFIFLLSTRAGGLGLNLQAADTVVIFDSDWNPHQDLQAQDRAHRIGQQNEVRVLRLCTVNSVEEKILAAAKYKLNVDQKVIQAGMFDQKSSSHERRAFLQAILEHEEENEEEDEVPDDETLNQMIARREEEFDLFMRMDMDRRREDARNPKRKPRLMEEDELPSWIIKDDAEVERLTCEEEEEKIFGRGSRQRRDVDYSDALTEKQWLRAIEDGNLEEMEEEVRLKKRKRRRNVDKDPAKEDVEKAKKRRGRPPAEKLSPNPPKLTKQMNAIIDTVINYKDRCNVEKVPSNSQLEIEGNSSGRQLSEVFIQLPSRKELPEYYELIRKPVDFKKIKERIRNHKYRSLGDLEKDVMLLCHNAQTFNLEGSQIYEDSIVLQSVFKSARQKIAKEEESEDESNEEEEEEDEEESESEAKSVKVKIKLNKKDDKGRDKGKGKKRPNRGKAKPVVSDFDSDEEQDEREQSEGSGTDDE

Row | IC50 [1] | IC50 [2] | SMILES
1 | 10 to 100 nM | 10 to 100 nM | CN(C)c1ncc(-c2ccc3nc(CNC(=O)c4ccn(C(C)(C)C)c4)[nH]c3c2)cn1 [Compound 56]
2 | 100 to 1000 nM | 100 to 1000 nM | COc1ccc(-c2ccc3nc(CNC(=O)c4ccn(C(C)(C)C)c4)[nH]c3n2)cc1 [Compound 6]
3 | 100 to 1000 nM | 100 to 1000 nM | C[C@@H]1CN(c2cccc(-c3ccc4nc(CNC(=O)c5ccn(C(C)(C)C)c5)[nH]c4c3)c2)C[C@H](C)O1 [Compound 15]
4 | 10 to 100 nM | 100 to 1000 nM | CC(C)S(=O)(=O)n1ccc(C(=O)NCc2nc3ccc(-c4cccc(-c5ccncc5)c4)nc3[nH]2)c1 [Compound 3]
5 | 10 to 100 nM | 10 to 100 nM | CN1Cc2ccc(-c3ccc4nc(CNC(=O)c5ccn(C(C)(C)C)c5)[nH]c4c3)cc2C1=O [Compound 31]
6 | 10 to 100 nM | 100 to 1000 nM | CC(C)(C)OCc1cccc(-c2ccc3nc(CNC(=O)c4ccn(C(C)(C)C)c4)[nH]c3c2)c1 [Compound 46]
7 | 100 to 1000 nM | 100 to 1000 nM | C[C@@H]1CN(c2ccc(-c3ccc4nc(CNC(=O)c5ccn(S(C)(=O)=O)c5)[nH]c4n3)cc2)C[C@H](C)O1 [Compound 14]
8 | 100 to 1000 nM | 100 to 1000 nM | CS(=O)(=O)n1ccc(C(=O)NCc2cc3nc(-c4cccc(OC5CC5)c4)ccc3cn2)c1 [Compound 70]
9 | 100 to 1000 nM | 100 to 1000 nM | Cn1ccc2ccc(-c3ccc4nc(CNC(=O)c5ccn(C6(C)COC6)c5)[nH]c4c3)cc2c1=O [Compound 20, N-((6-(2-methyl-1-oxo-1,2-dihydroisoquinolin-7-yl)-1H-benzo[d]imidazol-2-yl)methyl)-1-(3-methyloxetan-3-yl)-1H-pyrrole-3-carboxamide]
10 | 10 to 100 nM | 100 to 1000 nM | COc1ccc(-c2ccc3nc(CNC(=O)c4ccn(C(C)(C)C)c4)[nH]c3c2)cc1Cl [Compound 35]
11 | 10 to 100 nM | 10 to 100 nM | C[C@H](NC(=O)c1ccn(S(C)(=O)=O)c1)c1nc2ccc(-c3cccc(-c4ccncc4)c3)nc2[nH]1 [Compound 4]
12 | 10 to 100 nM | 100 to 1000 nM | CS(=O)(=O)n1ccc(C(=O)NCc2nc3ccc(-c4cccc(N5CCC5)c4)nc3[nH]2)c1 [Compound 10]
13 | < 10 nM | 10 to 100 nM | C[C@@H]1CN(c2cccc(-c3ccc4cnc(CNC(=O)c5ccn(S(C)(=O)=O)c5)cc4n3)n2)C[C@H](C)O1 [Compound 76, N-((2-(6-(cis-2,6-dimethylmorpholino)pyridin-2-yl)-1,6-naphthyridin-7-yl)methyl)-1-(methylsulfonyl)-1H-pyrrole-3-carboxamide]
14 | 100 to 1000 nM | > 1000 nM | COC(=O)N1CCC[C@H](c2ccc3nc(CNC(=O)c4ccn(S(C)(=O)=O)c4)[nH]c3n2)C1 [Compound 26]
15 | 100 to 1000 nM | 100 to 1000 nM | C[C@@H](NC(=O)c1ccn(S(C)(=O)=O)c1)c1nc2ccc(-c3cccc(-c4ccncc4)c3)nc2[nH]1 [Compound 5]
16 | 100 to 1000 nM | 100 to 1000 nM | CC(C)(C)n1ccc(C(=O)NCc2nc3ccc(-c4ccc(C5CC5)cc4)cc3[nH]2)c1 [Compound 37]
17 | 100 to 1000 nM | 100 to 1000 nM | CS(=O)(=O)n1ccc(C(=O)NCc2cc3nc(-c4cccc(C(F)F)c4)ccc3cn2)c1 [Compound 65]
18 | 100 to 1000 nM | 100 to 1000 nM | CC(C)(C)n1ccc(C(=O)NCc2nc3ccc(-c4cccc(C#N)c4)cc3[nH]2)c1 [Compound 39]
19 | 100 to 1000 nM | 100 to 1000 nM | CC(C)(C)n1ccc(C(=O)NCc2nc3ccc(-c4ccc(N5CCOCC5)nc4)cc3[nH]2)c1 [Compound 55]
20 | 10 to 100 nM | 10 to 100 nM | Cc1nn(C)c2ccc(-c3ccc4nc(CNC(=O)c5ccn(C(C)(C)C)c5)[nH]c4c3)cc12 [Compound 49]
21 | 10 to 100 nM | 100 to 1000 nM | CS(=O)(=O)n1ccc(C(=O)NCc2cc3nc(-c4cccc(N5CCC5)c4)ccc3cn2)c1 [Compound 64, N-[[2-[3-(azetidin-1-yl)phenyl]-1,6-naphthyridin-7-yl]methyl]-1-methylsulfonyl-pyrrole-3-carboxamide]
22 | 100 to 1000 nM | > 1000 nM | COC(=O)N1CCC[C@H](c2ccc3nc(CNC(=O)c4ccn(S(C)(=O)=O)c4)[nH]c3c2)C1 [Compound 22, (R)-methyl 3-(2-((1-(methylsulfonyl)-1H-pyrrole-3-carboxamido)methyl)-1H-benzo[d]imidazol-6-yl)piperidine-1-carboxylate]
23 | 10 to 100 nM | 10 to 100 nM | CC(C)(C)n1ccc(C(=O)NCc2nc3ccc(-c4ccc5ncccc5c4)cc3[nH]2)c1 [Compound 34]
24 | 10 to 100 nM | 10 to 100 nM | CC(C)(C)n1ccc(C(=O)NCc2nc3ccc(-c4cnn5ccccc45)cc3[nH]2)c1 [Compound 47]
25 | 100 to 1000 nM | 100 to 1000 nM | Cn1ncc2ccc(-c3ccc4nc(CNC(=O)c5ccn(C(C)(C)C)c5)[nH]c4c3)cc21 [Compound 36]
26 | 100 to 1000 nM | 100 to 1000 nM | COC(=O)N1CCC[C@@H](c2ccc3nc(CNC(=O)c4ccn(S(C)(=O)=O)c4)[nH]c3n2)C1 [Compound 25]

Row | IC50 [1] | IC50 [2] | SMILES
27 | 100 to 1000 nM | 100 to 1000 nM | CS(=O)(=O)n1ccc(C(=O)NCc2nc3ccc(-c4ccccc4)cc3[nH]2)c1 [Compound 27]
28 | 10 to 100 nM | 100 to 1000 nM | C[C@@H]1CN(c2cccc(-c3ccc4cnc(CNC(=O)c5ccn(C(C)(C)C)n5)cc4n3)n2)C[C@H](C)O1 [Compound 78]
29 | 10 to 100 nM | 100 to 1000 nM | CC(C)(C)n1ccc(C(=O)NCc2nc3ccc(-c4cccc5ccncc45)cc3[nH]2)c1 [Compound 51]
30 | 100 to 1000 nM | 100 to 1000 nM | COC(=O)N1CCC[C@@H](c2ccc3nc(CNC(=O)c4ccn(S(C)(=O)=O)c4)[nH]c3c2)C1 [Compound 21, (S)-methyl 3-(2-((1-(methylsulfonyl)-1H-pyrrole-3-carboxamido)methyl)-1H-benzo[d]imidazol-6-yl)piperidine-1-carboxylate]
31 | 10 to 100 nM | 100 to 1000 nM | CC(C)(C)n1ccc(C(=O)NCc2nc3ccc(-c4cc(Cl)cc(C#N)c4)cc3[nH]2)c1 [Compound 30]
32 | 10 to 100 nM | 10 to 100 nM | CS(=O)(=O)n1ccc(C(=O)NCc2nc3ccc(-c4ccc(OC(F)(F)F)cc4)nc3[nH]2)c1 [Compound 28]
33 | 100 to 1000 nM | 100 to 1000 nM | CS(=O)(=O)n1ccc(C(=O)NCc2cc3nc(-c4ccccc4)sc3cn2)c1 [Compound 73, 1-methylsulfonyl-N-[(2-phenylthiazolo[5,4-c]pyridin-6-yl)methyl]pyrrole-3-carboxamide]
34 | 10 to 100 nM | 10 to 100 nM | CC(C)(C)n1ccc(C(=O)NCc2nc3ccc(-c4ccc5scnc5c4)cc3[nH]2)c1 [Compound 42]
35 | 100 to 1000 nM | 100 to 1000 nM | CC(C)(C)n1ccc(C(=O)NCc2nc3ccc(-c4ccc(C#N)cc4)cc3[nH]2)c1 [Compound 43]
36 | 10 to 100 nM | 10 to 100 nM | COc1cccc(-c2ccc3nc(CNC(=O)c4cc(C)n(S(C)(=O)=O)c4)[nH]c3c2)c1 [Compound 17]
37 | 100 to 1000 nM | 100 to 1000 nM | CC(C)(C)n1ccc(C(=O)NCc2nc3ccc(-c4cncc5ccccc45)cc3[nH]2)c1 [Compound 38]
38 | 100 to 1000 nM | 100 to 1000 nM | Nc1ccc(C(=O)NCc2nc3ccc(-c4cccc(-c5ccncc5)c4)nc3[nH]2)cc1 [Compound 1, 4-amino-N-((5-(3-(pyridin-4-yl)phenyl)-3H-imidazo[4,5-b]pyridin-2-yl)methyl)benzamide]
39 | 100 to 1000 nM | 100 to 1000 nM | C[C@@H]1CN(c2cccc(-c3ccc4nc(CNC(=O)c5ccn(C6(C#N)CC6)c5)[nH]c4n3)c2)C[C@H](C)O1 [Compound 18]
40 | 100 to 1000 nM | 100 to 1000 nM | CC(C)(C)n1ccc(C(=O)NCc2nc3ccc(-c4ccc(CC#N)cc4)cc3[nH]2)c1 [Compound 53]
41 | 100 to 1000 nM | 100 to 1000 nM | CS(=O)(=O)n1ccc(C(=O)NCc2cc3nc(-c4ccc(N5CCC5)cc4)ccc3cn2)c1 [Compound 63]
42 | 100 to 1000 nM | 100 to 1000 nM | CS(=O)(=O)n1ccc(C(=O)NCc2nc3ccc(-c4cccc(N5CCC(O)CC5)c4)nc3[nH]2)c1 [Compound 12, N-((5-(3-(4-hydroxypiperidin-1-yl)phenyl)-3H-imidazo[4,5-b]pyridin-2-yl)methyl)-1-(methylsulfonyl)-1H-pyrrole-3-carboxamide]
43 | 100 to 1000 nM | 100 to 1000 nM | CS(=O)(=O)n1ccc(C(=O)NCc2cc3nc(-c4ccc5c(c4)OCC5)ccc3cn2)c1 [Compound 68]
44 | 10 to 100 nM | 100 to 1000 nM | CS(=O)(=O)n1ccc(C(=O)NCc2nc3ccc(-c4cccc(N5CCC(O)CC5)c4)cc3[nH]2)c1 [Compound 8, N-((6-(3-(4-hydroxypiperidin-1-yl)phenyl)-1H-benzo[d]imidazol-2-yl)methyl)-1-(methylsulfonyl)-1H-pyrrole-3-carboxamide]
45 | 10 to 100 nM | 100 to 1000 nM | COc1ccccc1-c1ccc2cnc(CNC(=O)c3ccn(S(C)(=O)=O)c3)cc2n1 [Compound 75]
46 | 10 to 100 nM | 10 to 100 nM | C[C@@H]1CN(c2cccc(-c3ccc4cnc(CNC(=O)c5ccn(C(C)(C)C)c5)cc4n3)n2)C[C@H](C)O1 [Compound 77]
47 | 100 to 1000 nM | 100 to 1000 nM | CN1CCc2cc(-c3ccc4cnc(CNC(=O)c5ccn(S(C)(=O)=O)c5)cc4n3)ccc21 [Compound 72]
48 | 100 to 1000 nM | 100 to 1000 nM | COCCOc1ccc(-c2ccc3nc(CNC(=O)c4ccn(C(C)(C)C)c4)[nH]c3c2)cc1 [Compound 59]
49 | 10 to 100 nM | 10 to 100 nM | C[C@@H]1CN(c2cccc(-c3ccc4nc(CNC(=O)c5ccn(S(C)(=O)=O)c5)[nH]c4c3)c2)C[C@H](C)O1 [Compound 11]
50 | 100 to 1000 nM | 100 to 1000 nM | CC(C)(C)n1ccc(C(=O)NCc2nc3ccc(-c4ccc5c(c4)CCO5)cc3[nH]2)c1 [Compound 40]
51 | 10 to 100 nM | 100 to 1000 nM | Cn1cc(-c2cccc(-c3ccc4cnc(CNC(=O)c5ccn(S(C)(=O)=O)c5)cc4n3)c2)cn1 [Compound 71]
